According to ChEMBL document CHEMBL6114999, “Natural pyrrolo[1,2-a]quinazolinone derivatives: Design, synthesis, characterization, and bio-evaluation as novel antiviral agents” (Eur J Med Chem, 2025):
Calls of active or inactive are those of the source. The calls are words filed in the database; no cut-off is given here.

Assays:
[1] = test system: Enterovirus; assay: Antiviral activity against EV71 infected in human RD cells assessed as protection from virus-induced cytopathogenicity incubated for 48 hrs by MTT assay; type: functional, organism-based; details: Enterovirus, 71, RD
[2] = Cytotoxicity against human RD cells incubated for 48 hrs by MTT assay; type: toxicity, cell-based
[3] = Selectivity index, ratio of CC50 for cytotoxicity against human RD cells to EC50 for antiviral activity against EV71 infected in human RD cells; type: toxicity, cell-based; details: read-out: Ratio CC50/EC50
[4] = test system: Coxsackievirus B3; assay: Antiviral activity against CVB3 infected in HEp-2 cells assessed as protection from virus-induced cytopathogenicity incubated for 48 hrs by MTT assay; type: functional, organism-based; details: Enterovirus B, HEp-2, 48 h
[5] = Cytotoxicity against human HEp-2 cells incubated for 48 hrs by MTT assay; type: toxicity, cell-based
[6] = Selectivity index, ratio of CC50 for cytotoxicity against HEp-2 cells to EC50 for antiviral activity against CVB3 infected in HEp-2 cells; type: toxicity, cell-based; details: human, read-out: Ratio CC50/EC50
[7] = test system: Coxsackievirus B3; assay: Antiviral activity against CVB3 infected in HEp-2 cells assessed as inhibition of virus-induced cell death at 25 to 100 uM incubated for 48 hrs by MTT assay; type: functional, organism-based; details: dose 25-100 µM
[8] = test system: Enterovirus; assay: Antiviral activity against EV71 infected in human RD cells assessed as inhibition of virus-induced cell death at 25 to 100 uM incubated for 48 hrs by MTT assay; type: functional, organism-based; details: 71, dose 25-100 µM
[9] = test system: Coxsackievirus B3; assay: Antiviral activity against CVB3 infected in HEp-2 cells assessed as inhibition of virus-induced cell death at 100 uM incubated for 48 hrs by MTT assay relative to control; type: functional; details: for inhibition at 100 µM: Enterovirus B, HEp-2, 48 h
[10] = test system: Enterovirus; assay: Antiviral activity against EV71 infected in human RD cells assessed as inhibition of virus-induced cell death at 100 uM incubated for 48 hrs by MTT assay relative to control; type: functional, 71; details: for inhibition at 100 µM: Enterovirus, 71, RD
[11] = test system: Coxsackievirus B3; assay: Antiviral activity against CVB3 infected in HEp-2 cells assessed as inhibition of virus-induced cell death at 25 uM incubated for 48 hrs by MTT assay relative to control; type: functional; details: Enterovirus B
[12] = test system: Coxsackievirus B3; assay: Antiviral activity against CVB3 infected in HEp-2 cells assessed as inhibition of virus-induced cell death at 50 uM incubated for 48 hrs by MTT assay relative to control; type: functional; details: Enterovirus B
[13] = test system: Enterovirus; assay: Antiviral activity against EV71 infected in human RD cells assessed as inhibition of virus-induced cell death at 25 uM incubated for 48 hrs by MTT assay relative to control; type: functional; details: Enterovirus, 71, RD
[14] = test system: Enterovirus; assay: Antiviral activity against EV71 infected in human RD cells assessed as inhibition of virus-induced cell death at 50 uM incubated for 48 hrs by MTT assay relative to control; type: functional; details: Enterovirus, 71, RD
[15] = test system: RD; assay: Inhibition of morphological changes in human RD cells infected with EV71 assessed as reduction in cytopathic effect at 50 to 100 uM measured after 48 hrs by Reed-Muench method; type: functional, cell-based; details: Enterovirus, 71, dose 50-100 µM
[16] = test system: HEp-2; assay: Inhibition of morphological changes in HEp-2 cells infected with CVB3 assessed as reduction in cytopathic effect at 50 to 100 uM measured after 48 hrs by Reed-Muench method; type: functional, cell-based; details: Coxsackievirus B3, dose 50-100 µM
[17] = test system: Enterovirus; assay: Antiviral activity against EV71 infected in human RD cells assessed as protection from virus-induced cytopathogenicity by measuring reduction in progeny virus titer incubated for 48 hrs by MTT assay; type: functional, 71
[18] = test system: Coxsackievirus B3; assay: Antiviral activity against CVB3 infected in HEp-2 cells assessed as protection from virus-induced cytopathogenicity by measuring reduction in progeny virus titer incubated for 48 hrs by MTT assay; type: functional
[19] = test system: Enterovirus; assay: Antiviral activity against EV71 infected in human RD cells assessed as viral infection in cell at 50 uM incubated for 46.5 hrs by fluorescence microscopy (reference value: 80.67 %); type: functional, 71
[20] = test system: Enterovirus; assay: Antiviral activity against EV71 infected in human RD cells assessed as viral infection in cell at 100 uM incubated for 46.5 hrs by fluorescence microscopy (reference value: 80.67 %); type: functional, 71
[21] = test system: Enterovirus; assay: Antiviral activity against EV71 infected in human RD cells assessed as log reduction in viral replication at 100 uM incubated for 4 to 32 hrs by […] method; type: functional, 71; details: time 4-32 hrs
[22] = test system: Enterovirus; assay: Antiviral activity against EV71 infected in human RD cells assessed as inhibition of viral RNA synthesis at 100 uM incubated for 32 hrs by qRT-PCR analysis; type: functional, organism-based; details: 71
[23] = test system: Enterovirus; assay: Antiviral activity against EV71 infected in human RD cells assessed as reduction in viral protein translation at 100 uM incubated for 32 hrs by immunofluorescence analysis; type: functional, organism-based; details: 71
[24] = test system: Enterovirus; assay: Virucidal activity against EV71 infected in human RD cells at 100 uM pretreated compound with virus followed by inoculation of mixture into host cells measured after 2 days by Reed-Muench method; type: functional, organism-based; details: 71, time 2.0 day
[25] = test system: Enterovirus; assay: Antiviral activity against EV71 infected in human RD cells assessed as cell viability at 100 uM pre-infected with virus followed by compound treatment measured after 48 hrs post-infection by MTT assay relative to control; type: functional, 71
[26] = test system: Enterovirus; assay: Antiviral activity against EV71 infected in human RD cells assessed as increase in cell viability at 3.125 to 100 uM preincubated with compound followed by viral infection measured after 48 hrs by MTT assay; type: functional, organism-based; details: 71, dose 3.125-100 µM
[27] = test system: Enterovirus; assay: Antiviral activity against EV71 infected in human RD cells assessed as increase in cell viability at 3.125 to 100 uM incubated with compound and virus measured after 48 hrs by MTT assay; type: functional, organism-based; details: 71, dose 3.125-100 µM
[28] = test system: Enterovirus; assay: Inhibition of EGFP-fused EV71 2Apro transfected in host cells co-expressing FLuc assessed as reduction in firefly luciferase activity incubated for 24 to 36 hrs by chemiluminescence analysis; type: cell-based; details: 71, time 24-36 hrs
[29] = test system: Enterovirus; assay: Inhibition of EV71 3Dpol assessed as decrease in RNA chain extension by polyacrylamide gel electrophoresis; details: 71

Compound | EC50 [1] | CC50 at 48 h [2] | selectivity ratio [3] | EC50 [4] | CC50 at 48 h [5] | selectivity ratio [6] | inhibition at 100 µM [9] | inhibition at 100 µM [10] | inhibition at 25 µM [11] | inhibition at 50 µM [12] | inhibition at 25 µM [13] | inhibition at 50 µM [14] | log(activity) [17] | log(activity) [18] | also measured
CN1C(=O)c2ccccc2N2C(=O)CCC12C(=O)NCCc1c[nH]c2ccccc12 (stereo not given) | 14.8 µM | 265 µM | 17.9 | 82 µM | 217 µM | 2.6 | 54.4% | 62.3% | 24.2% | 40.8% | 33% | 56.7% | ~2.73 | ~4.03 | antiviral activity call (active/inactive) [7]: Active; inhibition [8]: Active; inhibition [15]: Active; Compound Successfully Protected Host Cells From Pathological Changes Or Apoptosis; inhibition [16]: Active; Compound Successfully Protected Host Cells From Pathological Changes Or Apoptosis; Activity [19]: 22.66%; Activity [20]: 5.34%; log(activity) [21]: 3.25; inhibition [22]: Active; Activity [23]: Active; Activity [24]: inactive; Activity [25]: >80%; Activity [26]: inactive; Activity [27]: inactive; inhibition [28]: Active; inhibition [29]: inactive
NC(=O)c1ncn([C@@H]2O[C@H](CO)[C@@H](O)[C@H]2O)n1 [RIBAVIRIN] | 40.4 µM | 267 µM | 6.6 | 24.7 µM | 204 µM | 8.2 | 71% | 69.7% | 47.3% | 60.7% | 53.8% | 61.1% | 2.3 | 3.07 | Imax [9]: 71%; Imax [10]: 62.33%
